The source of these data is ChEMBL document CHEMBL5252570, “Synthesis and biological evaluation of 2,5-disubstituted furan derivatives containing 1,3-thiazole moiety as potential α-glucosidase inhibitors” (Bioorg Med Chem Lett, 2023).

What is called IC50 is the concentration that inhibits the measured activity by half. Lower therefore signals inhibition by little substance. By Ki is commonly meant the equilibrium dissociation constant of an inhibitor or competing ligand from its target.

The source made the active and inactive calls. The rule behind the calls is not given here.

The target of series [1] is T1, Alpha glucosidase (Homo sapiens, UniProt O43451+P10253+P14410+Q2M2H8). As to the kind of experiment: Inhibition of alpha glucosidase (unknown origin). It is filed as protein assay.
The target in series [2] is T1, Alpha glucosidase. The experiment in a line: Inhibition of alpha glucosidase (unknown origin) at 50 uM relative to control. It is filed as protein assay.
Series [3] addresses T1, Alpha glucosidase. The experiment in a line: Inhibition of alpha glucosidase (unknown origin) using p-nitrophenyl glucopyranoside as substrate pre incubated for 10 mins followed by substrate addition and measured after 30 mins by plate reader analysis. It is filed as protein assay.
A short description of series [4]: Cytotoxicity against mouse RAW264.7 cells assessed as inhibition of cell growth at 100 uM by CCK-8 assay relative to control. It is filed as toxicity, cell-based. The note with it: read-out: Activity. (Tetrazolium assays rely on reduction of a dye to a coloured formazan, in cell work by metabolically active cells.)
Series [5] addresses T1, Alpha glucosidase. As to the kind of experiment: Non-competitive inhibition of alpha glucosidase (unknown origin) assessed as inhibition constant using pNPG as substrate by Dixon plot analysis. It is filed as protein assay.
Series [6] is described as follows: Cytotoxicity against human HepG2 cells assessed as inhibition of cell growth at 100 uM by CCK-8 assay relative to control. It is filed as toxicity, cell-based. The note with it: read-out: Activity.
For series [7], the target named is T1, Alpha glucosidase. The experiment in a line: Potency index, […] for inhibition of alpha glucosidase (unknown origin). It is filed as protein assay.
A short description of series [8]: Cytotoxicity against human HEK293 cells assessed as inhibition of cell growth at 100 uM by CCK-8 assay relative to control. It is filed as toxicity, cell-based. The note with it: read-out: Activity.
In series [9] the target is T1, Alpha glucosidase. The experiment in a line: Competitive inhibition of alpha glucosidase (unknown origin) using pNPG as substrate by Lineweaver-Burk plot analysis. It is filed as protein assay.

`O=C(Sc1nccs1)c1ccc(-c2ccc(Br)cc2)o1`: the IC50 at Alpha glucosidase [1] was determined as 5.283 µM. The inhibition against Alpha glucosidase [2] was found to be 89.9%.

On to `O=C(Nc1nccs1)c1ccc(-c2ccc(F)cc2)o1`, for which the IC50 at Alpha glucosidase [1] stood at 20.717 µM. For the same compound, the inhibition against Alpha glucosidase [2] was determined as 67.4%.

`O=C(Sc1nccs1)c1ccc(-c2c(F)cccc2F)o1` displayed a half-inhibitory concentration (IC50) against Alpha glucosidase [1] of 8.436 µM. Besides, the inhibition against Alpha glucosidase [2] worked out at 83.6%.

With `O=C(Sc1nccs1)c1ccc(-c2cccc(F)c2)o1`, the concentration for half-maximal inhibition (IC50) against Alpha glucosidase [1] was 5.392 µM. Further, the inhibition on Alpha glucosidase [2] turned out to be 87%.

As for `O=C(Sc1nccs1)c1ccc(-c2cccc(Cl)c2)o1`, the IC50 on Alpha glucosidase [1] was 2.611 µM. At Alpha glucosidase [2], the inhibition was 94.4%.

Turning to `O=C(Sc1nccs1)c1ccc(-c2ccccc2F)o1`, the concentration for half-maximal inhibition (IC50) on Alpha glucosidase [1] was found to be 5.97 µM. Also, the inhibition at Alpha glucosidase [2] came out at 83.6%.

With `O=C(Sc1nccs1)c1ccc(-c2ccccc2)o1`, the IC50 on Alpha glucosidase [1] is 2.223 µM. Also, the inhibition against Alpha glucosidase [2] was 100%.

As to `O=C(Nc1nccs1)c1ccc(-c2ccc(Cl)cc2)o1`, the half-inhibitory concentration (IC50) against Alpha glucosidase [1] amounted to 14.769 µM. The compound further showed an inhibition against Alpha glucosidase [2] of 69.1%.

Consider `O=C(Sc1nccs1)c1ccc(-c2ccccc2Cl)o1`, for which, at Alpha glucosidase [1], the IC50 amounted to 1.935 µM. Further, the inhibition against Alpha glucosidase [2] was determined as 88.2%.

For `O=C(Sc1nccs1)c1ccc(-c2ccc([N+](=O)[O-])cc2)o1`, at Alpha glucosidase [1], the IC50 is 8.934 µM. Also, the inhibition at Alpha glucosidase [2] was found to be 85.7%.

Regarding `CC(C)(C)c1cc(/C=N/Nc2nc(-c3ccc(Cl)cc3)cs2)cc(C(C)(C)C)c1O`, the concentration for half-maximal inhibition (IC50) on Alpha glucosidase [3] is 18.23 µM.

`O=C(Nc1nccs1)c1ccc(-c2ccc(Br)cc2)o1` returned an IC50 against Alpha glucosidase [1] of 24.125 µM. This compound showed an inhibition at Alpha glucosidase [2] of 74%.

The compound `Cc1nnc(SC(=O)c2ccc(-c3cccc(F)c3)o2)s1` yielded a half-maximal inhibitory concentration (IC50) at Alpha glucosidase [1] of 0.082 µM.

Compound `O=C(Sc1nncs1)c1ccc(-c2ccc(Cl)cc2)o1` registered a concentration for half-maximal inhibition (IC50) against Alpha glucosidase [1] of 0.186 µM. Compared with the last compound, the IC50 is about 2.3-fold higher.

On Alpha glucosidase [1], `O=C(Nc1nccs1)c1ccc(-c2ccccc2[N+](=O)[O-])o1` returned an IC50 of 26.943 µM. For the same compound, the inhibition against Alpha glucosidase [2] is 87.7%.

For the compound `Cc1ccc(-c2ccc(C(=O)Nc3nccs3)o2)cc1`, the IC50 against Alpha glucosidase [1] was 26.495 µM. Further, the inhibition against Alpha glucosidase [2] was 64.6%.

Compound `O=C(Sc1nccs1)c1ccc(-c2ccccc2[N+](=O)[O-])o1` came in with a half-inhibitory concentration (IC50) at Alpha glucosidase [1] of 0.645 µM. Moreover, the values for the inhibition at 100 µM in series [4], in series [6] and in series [8] were 38.1%, 47.2% and 53.4%, respectively. Besides, on Alpha glucosidase [5], the Ki was 2.04 µM. Besides, the Ratio IC50 at Alpha glucosidase [7] came to 701. On Alpha glucosidase [2], this compound registered an inhibition of 98.5%.

Compound `COc1ccc(-c2ccc(C(=O)Nc3nccs3)o2)cc1` displayed an IC50 against Alpha glucosidase [1] of 30.94 µM. In addition, on Alpha glucosidase [2], the inhibition came out at 59%.

On to `O=C(Nn1c(-c2cc3ccccc3oc2=O)cs/c1=N\c1ccc(Cl)c(Cl)c1)c1ccccc1O`, for which the half-inhibitory concentration (IC50) against Alpha glucosidase [3] was found to be 0.12 µM. This lies in the sub-micromolar range.

The compound `O=C(Nc1nccs1)c1ccc(-c2c(F)cccc2F)o1` gave a 50% inhibitory concentration (IC50) against Alpha glucosidase [1] of 148.2 µM. This compound came in with an inhibition against Alpha glucosidase [2] of 21.6%.

The compound `O=C(Sc1nccs1)c1ccc(-c2ccc(Cl)cc2)o1` displayed a concentration for half-maximal inhibition (IC50) at Alpha glucosidase [1] of 4.562 µM. Moreover, the inhibition on Alpha glucosidase [2] turned out to be 84.2%.

On Alpha glucosidase [1], `O=C(Nc1nccs1)c1ccc(-c2ccccc2Cl)o1` showed an IC50 of 18.33 µM. At Alpha glucosidase [2], this compound displayed an inhibition of 59.3%.

As for `O=C(Sc1nccs1)c1ccc(-c2cccc([N+](=O)[O-])c2)o1`, on Alpha glucosidase [2], the inhibition was determined as 20.2%.

On Alpha glucosidase [1], `COc1ccc(-c2ccc(C(=O)Sc3nccs3)o2)cc1` returned an IC50 of 14.945 µM. Besides, the inhibition at Alpha glucosidase [2] was 78.6%.

Consider `O=C(Nc1nccs1)c1ccc(-c2ccc(F)cc2F)o1`, for which the half-inhibitory concentration (IC50) on Alpha glucosidase [1] was determined as 77.99 µM. Also, the inhibition against Alpha glucosidase [2] was found to be 34.1%.

The compound `O=C(Nc1nccs1)c1ccc(-c2cccc(Cl)c2)o1` came in with an IC50 at Alpha glucosidase [1] of 5.871 µM. Moreover, on Alpha glucosidase [2], the inhibition was determined as 88.4%.

Compound `Cc1ccc(-c2ccc(C(=O)Sc3nccs3)o2)cc1` came in with a concentration for half-maximal inhibition (IC50) at Alpha glucosidase [1] of 11.43 µM. Further, the inhibition at Alpha glucosidase [2] was 80.4%.

On to `O=C(Nc1nccs1)c1ccc(-c2ccccc2)o1`, for which the half-inhibitory concentration (IC50) at Alpha glucosidase [1] amounted to 94.033 µM. The compound further showed an inhibition against Alpha glucosidase [2] of 27.3%.

Regarding `O=C(Nc1nccs1)c1ccc(-c2cccc(F)c2)o1`, the IC50 against Alpha glucosidase [1] was 6.227 µM. The same compound displayed an inhibition against Alpha glucosidase [2] of 88.1%.

At Alpha glucosidase [1], `O=C(Nc1nccs1)c1ccc(-c2cccc([N+](=O)[O-])c2)o1` yielded an IC50 of 4.12 µM. For the same compound, the inhibition at 100 µM is 16.4% in [4], 13.7% in series [6] and 28.4% in series [8]. At Alpha glucosidase [5], the inhibition constant (Ki) came out at 367.24 µM. Further, the inhibition result at Alpha glucosidase [9] was “Active”. The same compound yielded an inhibition against Alpha glucosidase [2] of 89.3%.

Regarding `O=C(Nc1nccs1)c1ccc(-c2ccccc2F)o1`, at Alpha glucosidase [1], the IC50 was 19.763 µM. This compound also showed an inhibition on Alpha glucosidase [2] of 87.6%.

For the compound `N#C/N=c1\sccn1C(=O)c1ccc(-c2cccc(Cl)c2)o1`, the half-inhibitory concentration (IC50) on Alpha glucosidase [1] is 1.2 µM.

On to `C[C@H]1O[C@H](O[C@H]2[C@H](O)[C@@H](O)[C@@H](O[C@H]3[C@H](O)[C@@H](O)C(O)O[C@@H]3CO)O[C@@H]2CO)[C@H](O)[C@@H](O)[C@@H]1N[C@H]1C=C(CO)[C@@H](O)[C@H](O)[C@H]1O` (stereo not given in full), for which the inhibition result on Alpha glucosidase [9] is “Active”. This compound also had an inhibition against Alpha glucosidase [2] of 11.5%.

In turn, `O=C(Sc1nccs1)c1ccc(-c2ccc(F)cc2F)o1` returned an IC50 at Alpha glucosidase [1] of 6.935 µM. On Alpha glucosidase [2], this compound returned an inhibition of 86.1%.

Take `O=C(Nc1nccs1)c1ccc(-c2ccc([N+](=O)[O-])cc2)o1`: the IC50 against Alpha glucosidase [1] was determined as 4.987 µM. Further, the inhibition against Alpha glucosidase [2] was determined as 91.5%.

In the case of `O=C(Sc1nccs1)c1ccc(-c2ccc(F)cc2)o1`, the inhibition against Alpha glucosidase [2] came to 43.4%.
